Data set [1] deals with human monocyte-derived dendritic cells (moDCs). In words: IL-1β secretion by human moDCs treated with lipid and R848. Particulars: for IL-1β secretion / IL-1β secretion, dependence on the NLRP3 inflammasome: human moDCs; for IL-1β secretion, dependence on the NLRP3 inflammasome: R848 + lipid with or without MCC950, one day, FIG. 3B. It counts as cell-based.
The next data set relates to human moDCs. In words: Cell viability of human moDCs (CellTiter-Glo). The class given is cell-based. Particulars: human moDCs, R848 + lipid with MCC950; FIG. 3A. The procedure:
After an overnight incubation, cells and culture supernatant were used for downstream readouts. One hundred and fifty microliters of cell supernatant were collected. Viability was measured using the CellTiter-Glo assay (Promega) which measures ATP content from cells. Fifty microliters of CellTiter-Glo reagent were added to 50 μL of cells. Luminescence was quantified on a SpectraMax m5e plate reader using an integration time of 500 milliseconds. Viability data were set relative to control conditions where cells were treated with only R848. To measure IL-1β secretion, the human IL-1β Lumit kit (Promega) was used to assay cell culture supernatant. Culture supernatant samples were incubated with enzyme-linked antibodies in a 384-well plate for 1 hour before addition of luminescent substrate. Samples were measured for luminescence with an integration time of 500 milliseconds. IL-1β concentrations of samples was determined by interpolation from a standard curve using 4-parameter logistic regression analysis. Studies were performed on three different human donor samples, and each biological condition was tested in triplicate. Graphed data represent means from each donor.
Measurement of Cytokine Secretion and Cell Viability. After an overnight incubation, cells and culture supernatant were used for downstream readouts. One hundred and fifty microliters of cell culture supernatant were collected. Viability was measured using the CellTiter-Glo assay (Promega) which measures ATP content from cells. Fifty microliters of CellTiter-Glo reagent were added to 50 μL of cells. Luminescence was quantified on a SpectraMax m5e plate reader using an integration time of 500 milliseconds. Viability data were set relative to control conditions where cells were treated with only R848. To measure IL-1β secretion, the human IL-1β Lumit kit (Promega) was used. […] Samples were measured for luminescence with an integration time of 500 milliseconds. IL-1β concentrations of samples was determined by interpolation from a standard curve using 4-parameter logistic regression analysis. […]
In general terms: Cellular ATP, detected with luciferase, serves as a proxy for viable cell number.

Entries after “also recorded” stand apart in the source; their conditions may differ.

With `CCCCCCCCCCCCCCCCCCCCCCOC[C@@H](O)COP(=O)(O)O` [Compound 2, 1-docosyl-sn-glycerol-3-phosphate], the “hyperactivation of human dendritic cells” value in data set [1] (41.25 μM lipid with R848 (Compound 1 also 20.6 μM)) is “hyperactivating lipids; also recorded: hyperactivated dendritic cells”. Moreover, the IL-1β secretion result in data set [1] (41.25 μM lipid with R848, FIG. 17) is “significant increase in IL-1β”; in data set [1] (41.3 uM lipid with R848, FIG. 11), “robustly induced IL-113 secretion”; in data set [1] (24 hours, lipid (equimolar, in 0.5% KP407) with R848, FIG. 1B, listed as DGP), “IL-1β was secreted to a greater extent than 22:0 lyso PC; also recorded: more potent hyperactivator compared to DGPC (Compound 1) and 22:0 lyso PC”; in data set [1] (24 hours, lipid in 4% KP407 with R848, FIG. 2B), “produced significantly more IL-1β”. The “IL-1β secretion, dependence on the NLRP3 inflammasome” value in data set [1] is on record as “depend on the NLRP3 inflammasome for IL-1β secretion”.

`CC(C)(O)c1coc(S(=O)(=O)NC(=O)Nc2c3c(cc4c2CCC4)CCC3)c1` [MCC950, reference compound]: the cell viability result in the data set with human moDCs is reported as “did not affect cell viability”. Further, in data set [1], the “IL-1β secretion, dependence on the NLRP3 inflammasome” value is on record as “diminished the IL-1β output”.

The values are drawn from US20260097111A1, “ETHER LIPIDS FOR HYPERACTIVATION OF MAMMALIAN DENDRITIC CELLS” (priority 2022, published 2026).
